Test results: patent US7427612B2, “Benzoyl-piperazine derivatives” (Hoffmann-La Roche Inc., priority 2003, dated 2008)

Target: T1, mGlyT-1b (Mus musculus, UniProt P28571)
T1 construct: host or cells: Flp-in CHO cells, stably transfected
T1 sequence (P28571 1-651 isoform P28571-2): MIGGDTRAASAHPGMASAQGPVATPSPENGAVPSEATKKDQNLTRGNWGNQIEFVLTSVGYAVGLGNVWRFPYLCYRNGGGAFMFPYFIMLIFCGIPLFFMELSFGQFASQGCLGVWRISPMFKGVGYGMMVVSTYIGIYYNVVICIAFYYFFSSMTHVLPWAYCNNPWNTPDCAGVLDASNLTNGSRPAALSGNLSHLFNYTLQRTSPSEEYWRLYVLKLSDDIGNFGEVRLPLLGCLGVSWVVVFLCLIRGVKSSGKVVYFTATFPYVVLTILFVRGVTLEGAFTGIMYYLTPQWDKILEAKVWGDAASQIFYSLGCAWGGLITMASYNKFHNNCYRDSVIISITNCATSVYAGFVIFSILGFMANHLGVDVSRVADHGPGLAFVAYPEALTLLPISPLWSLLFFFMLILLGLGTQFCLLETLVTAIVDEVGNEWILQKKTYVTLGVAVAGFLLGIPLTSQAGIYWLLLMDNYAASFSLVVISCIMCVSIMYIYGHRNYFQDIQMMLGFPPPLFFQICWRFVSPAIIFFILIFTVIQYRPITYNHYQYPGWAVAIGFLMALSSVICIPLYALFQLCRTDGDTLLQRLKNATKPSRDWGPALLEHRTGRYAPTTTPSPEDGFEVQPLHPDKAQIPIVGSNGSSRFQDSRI
Experiment: Glycine uptake inhibition assay (mGlyT-1b)
Assay type: cell-based
Conditions: inhibition of [3H]-glycine uptake in Flp-in-CHO cells stably transfected with mGlyT1b cDNA; 20 min at 22° C.
Method: DMEM complete medium: Nutrient mixture F-12 (Gibco Life-technologies), fetal bovine serum (FBS) 5%, (Gibco life technologies), Penicillin/Streptomycin 1% (Gibco life technologies), Hygromycin 0.6 mg/ml (Gibco life technologies), Glutamine 1 mM Gibco life technologies)
Uptake buffer (UB): 150 mM NaCl, 10 mM Hepes-Tris, pH 7.4, 1 mM CaCl2, 2.5 mM KCl, 2.5 mM MgSO4, 10 mM (+) D-glucose. Flp-in™—CHO (Invitrogen Cat n° R758-07)cells stably transfected with mGlyT1b cDNA.
Glycine uptake inhibition assay (mGlyT-1b)
On Day 1 mammallian cells, (Flp-in™—CHO), transfected with mGlyT-1b cDNA, were plated at the density of 40,000 cells/well in complete F-12 medium, without hygromycin in 96-well culture plates. On day 2, the medium was aspirated and the cells were washed twice with uptake buffer (UB). The cells were then incubated for 20 min at 22° C. with either (i) no potential competitor, (ii) 10 mM non-radioactive glycine, (iii) a concentration of a potential inhibitor. A range of concentrations of the potential inhibitor was used to generate data for calculating the concentration of inhibitor resulting in 50% of the effect (e.g. IC50, the concentration of the competitor inhibiting glycine uptake of 50%). A solution was then immediately added containing [^3H]-glycine 60 nM (11-16 Ci/mmol) and 25 μM non-radioactive glycine. The plates were incubated with gentle shaking and the reaction was stopped by aspiration of the mixture and washing (three times) with ice-cold UB. The cells were lysed with scintillation liquid, shaken 3 hours and the radioactivity in the cells was counted using a scintillation counter.

| SMILES | IC50 |
| --- | --- |
| CNS(=O)(=O)c1ccc(N2CCOCC2)c(C(=O)N2CCN(c3ccc(C(F)(F)F)c(F)c3)CC2)c1 [Example 264, 3-[4-(3-Fluoro-4-trifluoro-methyl-phenyl)-piperazine-1-carbonyl]-N-methyl-4-morpholin-4-yl-benzenesulfonamide] | 12 nM |
| CNS(=O)(=O)c1ccc(N2CCCC2)c(C(=O)N2CCN(c3ccc(C(C)=O)cc3F)CC2)c1 [Example 133, 3-[4-(4-Acetyl-2-fluoro-phenyl)-piperazine-1-carbonyl]-N-methyl-4-pyrrolidin-1-yl-benzenesulfonamide] | 9 nM |
| CC(=O)c1ccc(N2CCN(C(=O)c3cc([N+](=O)[O-])ccc3N3CCOCC3)CC2)c(F)c1 [Example 1, 1-{4-[4-(2-Morpholin-4-yl-5-nitro-benzoyl)-piperazin-1-yl]-3-fluoro-phenyl}-ethanone] | 15 nM |
| CC(=O)c1ccc(N2CCN(C(=O)c3cc([N+](=O)[O-])ccc3N3CCCCC3)CC2)c(F)c1 [Example 27, 1-{3-Fluoro-4-[4-(5-nitro-2-piperidin-1-yl-benzoyl)-piperazin-1-yl]-phenyl}-ethanone] | 1.2 nM |
| C=CCN(C)c1ccc([N+](=O)[O-])cc1C(=O)N1CCN(c2ccc(C(C)=O)cc2F)CC1 [Example 43, 1-(4-{4-[2-(Allyl-methyl-amino)-5-nitro-benzoyl]-piperazin-1-yl}-3-fluoro-phenyl)-ethanone] | 9 nM |
| CNS(=O)(=O)c1ccc(N2CCCC2)c(C(=O)N2CCN(c3ccc(C#N)cc3)CC2)c1 [Example 233, 3-[4-(4-Cyano-phenyl)-piperazine-1-carbonyl]-N-methyl-4-pyrrolidin-1-yl-benzenesulfonamide] | 16 nM |
| CNS(=O)(=O)c1ccc(N2CCCCC2)c(C(=O)N2CCN(c3ccc(C(F)(F)F)cc3F)CC2)c1 [Example 250, 3-[4-(2-Fluoro-4-trifluoromethyl-phenyl)-piperazine-1-carbonyl]-N-methyl-4-piperidin-1-yl-benzenesulfonamide] | 15 nM |
| CNS(=O)(=O)c1ccc(N2CCCC2)c(C(=O)N2CCN(c3ccc(C(F)(F)F)cc3)CC2)c1 [Example 129, N-Methyl-4-pyrrolidin-1-yl-3-[4-(4-trifluoromethyl-phenyl)-piperazine-1-carbonyl]-benzenesulfonamide] | 5 nM |
| CC(=O)c1ccc(N2CCN(C(=O)c3cc([N+](=O)[O-])ccc3NC(C)(C)C)CC2)c(F)c1 [Example 176, 1-{3-Fluoro-4-[4-(2-tert.-butylamino-5-nitro-benzoyl)-piperazin-1-yl]-phenyl}-ethanone] | 20 nM |
| CC(=O)c1ccc(N2CCN(C(=O)c3cc([N+](=O)[O-])ccc3NC3CCCC3)CC2)c(F)c1 [Example 21, 1-{4-[4-(2-Cyclopentylamino-5-nitro-benzoyl)-piperazin-1-yl]-3-fluoro-phenyl}-ethanone] | 2.3 nM |
| CNS(=O)(=O)c1ccc(N2CCOCC2)c(C(=O)N2CCN(c3ccc(C(F)(F)F)cc3)CC2)c1 [Example 131, N-Methyl-4-morpholin-4-yl-3-[4-(4-trifluoromethyl-phenyl)-piperazine-1-carbonyl]-benzenesulfonamide] | 8 nM |
| CS(=O)(=O)c1ccc(N2CCCCC2)c(C(=O)N2CCN(c3ccc(C#N)c(F)c3)CC2)c1 [Example 217, 2-Fluoro-4-[4-(5-methanesulfonyl-2-piperidin-1-yl-benzoyl)-piperazin-1-yl]-benzonitrile] | 16 nM |
| CC(=O)c1ccc(N2CCN(C(=O)c3cc([N+](=O)[O-])ccc3N3CC=CC3)CC2)c(F)c1 [Example 41, 1-(4-{4-[2-(2,5-Dihydro-pyrrol-1-yl)-5-nitro-benzoyl]-piperazin-1-yl}-3-fluoro-phenyl)-ethanone] | 14 nM |

More lines, now with the values ahead:

| IC50 | SMILES |
| --- | --- |
| 7 nM | CC(=O)c1ccc(N2CCN(C(=O)c3cc([N+](=O)[O-])ccc3N3CCCC(C)C3)CC2)c(F)c1 (stereo not drawn) [Example 37, 1-(3-Fluoro-4-{4-[2-(3-methyl-piperidin-1-yl)-5-nitro-benzoyl]-piperazin-1-yl}-phenyl)-ethanone] |
| 12 nM | CC(=O)c1ccc(N2CCN(C(=O)c3cc([N+](=O)[O-])ccc3N3CCCC3)CC2)c(F)c1 [Example 16, 1-{3-Fluoro-4-[4-(5-nitro-2-pyrrolidin-1-yl-benzoyl)-piperazin-1-yl]-phenyl}-ethanone] |
| 8 nM | CC(=O)c1ccc(N2CCN(C(=O)c3cc([N+](=O)[O-])ccc3N3CCCC3C)CC2)c(F)c1 (stereo not drawn) [Example 38, 1-(3-Fluoro-4-{4-[2-(2-methyl-pyrrolidin-1-yl)-5-nitro-benzoyl]-piperazin-1-yl}-phenyl)-ethanone] |
| 9.7 nM | CC(=O)c1ccc(N2CCN(C(=O)c3cc([N+](=O)[O-])ccc3N3CCC(CO)C3)CC2)c(F)c1 (racemic) [Example 175, 1-(3-Fluoro-4-{4-[2-(3-hydroxymethyl-pyrrolidin-1-yl)-5-nitro-benzoyl]-piperazin-1-yl}-phenyl)-ethanone] |
| 3.5 nM | CC(=O)c1ccc(N2CCN(C(=O)c3cc([N+](=O)[O-])ccc3N3CCSCC3)CC2)c(F)c1 [Example 42, 1-{3-Fluoro-4-[4-(5-nitro-2-thiomorpholin-4-yl-benzoyl)-piperazin-1-yl]-phenyl}-ethanone] |
